Patent US4515980A, “Substituted aminobenzoates, their preparation and use” (Sterling Drug Inc., priority 1983, dated 1985)
Read-outs that look alike come from different tables or passages of the source.

Tests used:
[1] = target: T1, cyclooxygenase (Rattus norvegicus, UniProt Q63921); test: Inhibition of cyclooxygenase derived from rat basophilic leukemia (RBL-1) cells, formation of product PDG2 (C1); format: biochemical; details: RBL-1 homogenate; for IC50: C1, PDG2; for inhibition at 1 µM: dose of 1 μM, 5 min preincubation, 15 min incubation at 37° C, read-out: In vitro % Inhibition, C1 (cyclooxygenase product formation)
T1 construct: Single cell suspensions of RBL-1 cells are homogenized to obtain the microsomal fraction containing lipoxygenase and cyclooxygenase; endogenous in cells; host or cells: RBL-1 (rat basophilic leukemia) cells, homogenate / microsomal fraction
T1 sequence (Q63921 27-602): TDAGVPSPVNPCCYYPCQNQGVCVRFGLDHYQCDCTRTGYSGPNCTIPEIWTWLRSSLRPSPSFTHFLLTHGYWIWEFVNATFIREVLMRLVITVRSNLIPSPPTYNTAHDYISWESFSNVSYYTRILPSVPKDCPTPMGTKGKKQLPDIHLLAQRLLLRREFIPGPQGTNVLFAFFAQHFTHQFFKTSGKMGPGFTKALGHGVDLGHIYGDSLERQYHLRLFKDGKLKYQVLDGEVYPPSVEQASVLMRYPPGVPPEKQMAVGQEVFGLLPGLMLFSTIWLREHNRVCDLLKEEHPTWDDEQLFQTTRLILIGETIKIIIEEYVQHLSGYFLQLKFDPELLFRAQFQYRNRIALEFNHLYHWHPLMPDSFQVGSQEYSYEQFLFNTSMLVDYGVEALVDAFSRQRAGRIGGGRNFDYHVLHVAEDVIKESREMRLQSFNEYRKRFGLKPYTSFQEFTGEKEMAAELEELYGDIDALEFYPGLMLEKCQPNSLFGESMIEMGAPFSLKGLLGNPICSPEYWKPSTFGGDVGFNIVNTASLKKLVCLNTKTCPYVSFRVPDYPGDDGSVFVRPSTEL
Experimental: (§1) The primary screening test used is a determination of the inhibition of lipoxygenase and cyclooxygenase derived from rat basophilic leukemia (RBL-1) cells. The test was carried out according to the following procedure:
(§2) Single cell suspensions of RBL-1 cells are homogenized to obtain the microsomal fraction containing lipoxygenase and cyclooxygenase. Test compounds are added to the enzyme-containing homogenate for a 5 min preincubation period at 37° C. prior to the addition of ^14 C-arachidonic acid substrate. Following incubation at 37° C. for 15 min, the reaction is stopped by the addition of 2M formic acid and the enzyme-substrate products are extracted into chloroform. An aliquot of the extract is evaporated to dryness, reconstituted in ether to 1/10 original volume, spotted on thin layer chromatography plates and chromatographed. The peak areas of radioactivity representing the products are located by scanning the plates. The quantity of products formed is estimated by measuring the height of the radioactivity peaks observed on the chromatographic scans. Alternatively, the areas of radioactivity are scraped from the plate and the ^14 C quantitated by scintillation counting.

[2] = target: T2, lipoxygenase (Rattus norvegicus, UniProt P12527); test: Inhibition of lipoxygenase derived from rat basophilic leukemia (RBL-1) cells, formation of products 5,12-di-HETE (L1) and 5-HETE (L2); format: biochemical
T2 construct: Single cell suspensions of RBL-1 cells are homogenized to obtain the microsomal fraction containing lipoxygenase and cyclooxygenase; endogenous in cells; host or cells: RBL-1 (rat basophilic leukemia) cells, homogenate / microsomal fraction
T2 sequence (P12527 1-673): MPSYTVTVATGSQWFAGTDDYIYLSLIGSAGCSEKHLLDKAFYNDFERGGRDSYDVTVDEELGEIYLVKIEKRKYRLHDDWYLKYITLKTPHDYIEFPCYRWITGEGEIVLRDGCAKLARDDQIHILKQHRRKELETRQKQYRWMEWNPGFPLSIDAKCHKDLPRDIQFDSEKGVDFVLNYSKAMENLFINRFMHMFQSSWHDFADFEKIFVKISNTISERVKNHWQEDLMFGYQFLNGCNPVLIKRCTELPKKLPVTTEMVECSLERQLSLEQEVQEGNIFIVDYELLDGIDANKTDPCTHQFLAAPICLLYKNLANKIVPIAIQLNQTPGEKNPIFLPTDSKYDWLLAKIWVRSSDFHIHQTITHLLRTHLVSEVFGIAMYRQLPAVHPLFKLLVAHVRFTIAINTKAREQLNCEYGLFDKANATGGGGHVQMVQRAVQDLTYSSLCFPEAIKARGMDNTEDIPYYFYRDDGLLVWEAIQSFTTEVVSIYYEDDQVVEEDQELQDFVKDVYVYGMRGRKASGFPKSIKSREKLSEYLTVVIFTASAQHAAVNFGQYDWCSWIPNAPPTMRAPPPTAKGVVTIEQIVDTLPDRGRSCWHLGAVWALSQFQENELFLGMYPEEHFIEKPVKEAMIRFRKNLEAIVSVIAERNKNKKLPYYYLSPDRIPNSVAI
Experimental: as §1, §2

[3] = system: STS-A component of immunologically induced bronchoconstriction; test: Effect on the STS-A component of immunologically induced bronchoconstriction in guinea pigs; format: in vivo; details: 4 hrs., at 1 mg/kg orally, indomethacin + chlorpheniramine medicated, antigen challenge
Experimental: The test was carried out according to the following procedure:
Two weeks after immunization with egg albumin, guinea pigs are prepared for bronchoconstriction determination. One hour prior to antigen challenge, each animal is dosed orally with indomethacin and chlorpheniramine. Animals are anesthetized with sodium pentobarbital, the trachea cannulated and the animal artifically respired. Arachidonic acid is administered intravenously prior to antigen challenge. The resulting bronchoconstriction is recorded by the standard lung overflow procedure and the peak increase in intratracheal pressure (mm Hg) over a 10 minute observation period is recorded. Compounds are evaluated for their ability to prevent the increased intratracheal pressure in an experimental group of animals as compared to the medicated (indomethacin+chlorpheniramine+arachidonic acid) control group. The results are expressed in terms of percent inhibition or as ED50 values (efffective dose in 50% of the animals).

[4] = IC50, L1 (lipoxygenase product 5,12-di-HETE formation), L1, 5,12-di-HETE, RBL-1 homogenate
[5] = IC50, L2 (lipoxygenase product 5-HETE formation), L2, 5-HETE, RBL-1 homogenate
[6] = read-out: In vitro % Inhibition, L1 (lipoxygenase product 5,12-di-HETE formation)
[7] = read-out: In vitro % Inhibition, L2 (lipoxygenase product 5-HETE formation)

CCOC(=O)c1ccccc1Nc1ccccc1O [Example 1d, Ethyl 2-(2-hydroxyphenylamino)benzoate]
IC50 [1]: 320 nM | inhibition at 1 µM [1]: 34% | IC50 [2, 4]: 160 nM | IC50 [2, 5]: 100 nM | inhibition at 1 µM [2, 6]: 95% | inhibition at 1 µM [2, 7]: 98%

CCOC(=O)c1ccccc1Nc1ccc(O)cc1 [Example 2b, Ethyl 2-(4-hydroxyphenylamino)benzoate]
IC50 [1]: > 1000 nM | inhibition at 1 µM [1]: 19% | IC50 [2, 4]: 340 nM | IC50 [2, 5]: 250 nM | inhibition at 1 µM [2, 6]: 77% | inhibition at 1 µM [2, 7]: 93% | In vivo Guinea Pig % inhib. (increased intratracheal pressure, bronchoconstriction) [3]: 38%

CCOC(=O)c1cc(OC)ccc1Nc1ccc(O)cc1 [Example 3d, Ethyl 2-(4-hydroxyphenylamino)-5-methoxybenzoate]
IC50 [1]: > 1000 nM | inhibition at 1 µM [1]: 18% | IC50 [2, 4]: 110 nM | IC50 [2, 5]: 100 nM | inhibition at 1 µM [2, 6]: 90% | inhibition at 1 µM [2, 7]: 91% | In vivo Guinea Pig % inhib. (increased intratracheal pressure, bronchoconstriction) [3]: 42%

CCOC(=O)c1ccccc1Nc1ccc(O)cc1C [Example 4c, Ethyl 2-(4-hydroxy-2-methylphenylamino)benzoate]
inhibition at 1 µM [1]: 0% | inhibition at 1 µM ([2]; L1, 5,12-di-HETE, dose of 1 μM, RBL-1 homogenate, 5 min preincubation, 15 min incubation at 37° C, read-out: In vitro % Inhibition, L1 (lipoxygenase product 5,12-di-HETE formation)): 60% | inhibition at 1 µM ([2]; L2, 5-HETE, dose of 1 μM, RBL-1 homogenate, 5 min preincubation, 15 min incubation at 37° C, read-out: In vitro % Inhibition, L2 (lipoxygenase product 5-HETE formation)): 76%

CCOC(=O)c1ccccc1Nc1ccc(O)c(Cl)c1 [Example 5c, Ethyl 2-(3-chloro-4-hydroxyphenylamino)benzoate]
IC50 [1]: > 1000 nM | inhibition at 1 µM [1]: 26% | IC50 [2, 4]: 670 nM | IC50 [2, 5]: 300 nM | inhibition at 1 µM [2, 6]: 90% | inhibition at 1 µM [2, 7]: 99%
